Test results taken from publication PMC6909574, “The in vivo impact of MsLAC1, a Miscanthus laccase isoform, on lignification and lignin composition contrasts with its in vitro substrate preference” (BMC Plant Biology, 2019).

Target: T1, MsLAC1 (Miscanthus sinensis, UniProt A0A5B8YT74)
T1 construct: recombinant, secreted from Pichia pastoris X33 (pPICZalphaA, alpha-factor, MYC and HIS tags)
T1 sequence (A0A5B8YT74 32-583): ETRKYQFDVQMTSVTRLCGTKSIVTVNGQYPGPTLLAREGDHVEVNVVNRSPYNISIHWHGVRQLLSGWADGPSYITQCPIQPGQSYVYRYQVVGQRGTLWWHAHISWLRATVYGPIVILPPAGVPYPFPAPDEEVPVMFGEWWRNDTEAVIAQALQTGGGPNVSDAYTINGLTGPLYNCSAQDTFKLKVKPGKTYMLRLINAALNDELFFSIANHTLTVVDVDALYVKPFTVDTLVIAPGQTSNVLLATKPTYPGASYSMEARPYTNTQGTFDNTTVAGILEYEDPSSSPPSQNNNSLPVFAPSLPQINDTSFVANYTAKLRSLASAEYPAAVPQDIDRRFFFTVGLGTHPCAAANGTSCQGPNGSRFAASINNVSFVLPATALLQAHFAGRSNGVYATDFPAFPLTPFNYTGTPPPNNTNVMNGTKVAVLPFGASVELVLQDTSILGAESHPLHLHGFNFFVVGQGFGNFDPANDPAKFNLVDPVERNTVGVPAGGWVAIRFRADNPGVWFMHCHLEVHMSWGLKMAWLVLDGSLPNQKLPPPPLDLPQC
Test: UV-Vis spectra over time ([…]-650 nm)
Type: biochemical
Conditions: 0.5 mM substrate, 0.02 U enzyme, 50 mM sodium acetate pH 5.0, 30 °C

COc1cc(/C=C/CO)ccc1O [coniferyl alcohol]
UV-Vis spectra over time (250-650 nm): recombinant MsLAC1 enzyme was able to oxidize all supplemented monolignols
